For `c1ccc(CN2CCc3[nH]c4cc(-c5ccccc5)ccc4c3CC2)cc1`, the melting point fell in the range of 176 to 177 °C.

For the compound `CC(C)n1nc(-c2sc(C(=O)NC3CC3)nc2-c2ccccc2)ccc1=O`, the melting point was in the range of 127 to 128 °C.

`COc1ccc(-c2nc(CCC(=O)O)oc2-c2ccccc2)cc1`: the melting point was in the range of 118 to 120 °C.

`CC(=O)O[C@H]1CC=CO[C@@H]1COS(=O)(=O)c1ccc(C)cc1` had a melting point of 76 to 79 °C.

For the compound `COC(=O)c1ccccc1S(=O)(=O)N(n1cnn(-c2nc(OC)cc(OC)n2)c1=O)S(=O)(=O)c1ccccc1C(=O)OC`, the melting point was 176 °C.

For the compound `O=C(CCc1ccccc1)c1c(O)c2cccnc2n(-c2ccccc2)c1=O`, the melting point lay in the range of 233 to 234 °C.

In turn, `CC(C)(Cc1c2c(nn1CCO)c(N)nc1ccccc12)NS(C)(=O)=O` showed a melting point of 203 to 204 °C.

In turn, `CON=c1cc(C)c2ccccc2[nH]c1=O` gave a melting point of 190 to 193 °C.

For `CC1=C(c2cccc(C(F)(F)F)c2)n2ncc(C#N)c2N(C(=O)CN2CCN(c3ccccn3)CC2)C1`, the melting point lay in the range of 132 to 134 °C.

`O=[N+]([O-])c1cnc(Sc2n[nH]c(-c3ccccc3)n2)s1` came in with a melting point of 155 to 157 °C.

`COc1ccc(CSc2ccc([N+](=O)[O-])cc2CO)cc1` had a melting point of 101 to 102 °C.

For the compound `Cc1cccc(N2CCN(C(=O)CCCCCCC(=O)NO)CC2C)c1` (stereo not given), the melting point fell in the range of 75 to 76 °C.

The compound `N=C(N)c1ccc2cc(OC(=O)C3CCC(CNC(=O)OCc4ccccc4)CC3)ccc2c1` (stereo not given) showed a melting point of 167 to 170 °C.

As for `CC(OC(=O)Nc1ccc(-c2ncn(-c3ccc(C(F)(F)F)cc3)n2)cc1)c1ccc(C(F)(F)F)cc1` (stereo not given), the melting point was 156 to 158 °C.

Turning to `NC(=O)c1cc2c3ccccc3n(Cc3ccccc3)c2s1`, the melting point stood at 207 °C.

`CCN(C(=O)C1(C(=O)O)CC1)c1ccc(Cl)cc1` came in with a melting point of 99 to 101 °C.

Compound `O=C(N=c1ccn(-c2ccccc2)nc1)c1ccccc1` showed a melting point of 175 to 176 °C.

`CC(C)N(CC(O)CC(c1ccccc1)c1ccccc1)C(C)C` (stereo not given) returned a melting point of 55 to 59 °C.

Turning to `Cc1cc(C)cc(NC(=O)Cc2ccc(OC(C)(C)C(=O)O)cc2)c1`, the melting point was determined as 85 °C.

Turning to `O=C1c2cccc(O)c2C2(OCCS2)c2c(O)cccc21`, the melting point lay within 197 to 199 °C.

As to `CC1CCN=C2N1c1ccc(Br)cc1C21OCCCO1` (stereo not given), the melting point lay within 69 to 72 °C.

Consider `COC(=O)C1=C(C(F)F)NC(C)=C(C(=O)OC2CCCC2)C1c1cccc([N+](=O)[O-])c1C` (stereo not given), for which the melting point was in the range of 154 to 156 °C.

Compound `COc1ccc(N2N=C(N)CC2c2ccccc2)cc1` (stereo not given) had a melting point of 164 to 166 °C.

Consider `Cn1cc(-c2ccccc2)c(=O)c(-c2cccc(Cl)c2)c1`, for which the melting point was found to be 172 °C.

The compound `O=C(O)c1ccc(OCCC2CC(=O)N(c3ccc(Cl)cc3)C2)cc1` (stereo not given) gave a melting point of 228 to 229 °C.

Regarding `COC(=O)c1cc(-c2ccc(C)c(C)c2)n(Cc2ccc(F)cc2)n1`, the melting point amounted to 93 °C.

For `Fc1ccc(C(Cl)(c2ccccc2)c2ccccc2)cc1`, the melting point was 88 °C.

In turn, `COC(=O)CCCc1cc2cc(Cl)ccc2n1S(=O)(=O)c1ccc(C(C)C)cc1` returned a melting point of 95 to 97 °C.

The compound `N#CC(C(=O)CBr)c1cccc(Cl)c1` (stereo not given) yielded a melting point of 124 to 132 °C.

`CON=Cc1c[nH]c(-c2ccc(F)cc2)c1-c1ccncc1` displayed a melting point of 242 to 248 °C.

In the case of `COc1cccc(Oc2ccc3ccc(N)nc3n2)c1`, the melting point stood at 160 °C.

`COC(=O)c1ccc(C(=O)CC(=O)OCc2ccccc2)cc1` returned a melting point of 71 °C.

`NCCc1ccc(Cl)c(Cl)c1CCO` came in with a melting point of 79 to 80 °C.

The compound `Nc1nc2c(ncn2C2CC(O)C(CO)O2)c(=O)[nH]1` (stereo not given) showed a melting point of more than 300 °C.

On to `Cc1cccc(-c2nc3ccc(OCCCl)cc3n2Cc2ccccc2)c1`, for which the melting point came to 88 °C.

`CCOC(=O)Cc1cc(C)c(C(=O)c2ccc(Cl)c(Cl)c2)n1C` had a melting point of 92 to 93.5 °C.

Compound `CC(C(=O)O)c1ccc(CC(Cl)(Cl)Cl)c(F)c1` (stereo not given) gave a melting point of 92 to 94 °C.

`NC(=O)N(O)CCNC(=O)c1cccc(Oc2ccc(Cl)cc2)c1` yielded a melting point of 146 to 147 °C.

`CCOC(=O)C(=O)Nc1c([N+](=O)[O-])ccc2c1CCCC2`: the melting point lay in the range of 121 to 122 °C.

As to `CCCC(=O)c1cnc2c(OCCOC)cccc2c1Nc1ccccc1C`, the melting point is 75 to 77 °C.

`O=C(Nc1ccccc1)C(CS)Cc1ccccc1` (stereo not given) displayed a melting point of 70 °C.

In turn, `CCOC(=O)c1c(CCl)nc2cc(OC)c(OC)cc2c1-c1ccc(OC)c(OC)c1` registered a melting point of 147 to 148 °C.

Compound `CC(C)[C@H](CCC(=O)OCc1ccccc1)NC(=O)OC(C)(C)C` displayed a melting point of 94 to 96 °C.

`O=C(NCCCOc1cccc(CN2CCCCC2)c1)Nc1ccc2c(c1)OCO2` came in with a melting point of 128 to 130 °C.

On to `CCCCCCCCCCCCCCCCCC1OC1C` (stereo not given), for which the melting point was 40 °C.

`COc1cccc2oc(-c3ccc(C(F)(F)F)cc3)cc(=O)c12` had a melting point of 190 to 191 °C.

With `O=[N+]([O-])c1cc([N+](=O)[O-])c(OCCO)cc1Cl`, the melting point was in the range of 98 to 100 °C.

`CC(C)C1(C)N=C2c3nc4occc4cc3C(=O)N2C1=O` (stereo not given) registered a melting point of 193 to 205 °C.

In the case of `O=C1c2ccccc2C(=O)c2sc(-c3ccccn3)nc21`, the melting point is more than 260 °C.

Regarding `Cc1ccc(-c2cc(F)c(F)cc2-c2ccc(S(C)(=O)=O)cc2)cc1`, the melting point fell in the range of 147 to 148 °C.

Compound `CCC1(C)NC(=O)C(C)(CC)N1` (stereo not given) returned a melting point of 58 to 64 °C.

In turn, `O=C(O)C(CC1CCCC1)c1cccc([N+](=O)[O-])c1` (stereo not given) showed a melting point of 95 to 99 °C.

As for `O=C(O)C(=O)c1ccc(O)c([N+](=O)[O-])c1`, the melting point lay in the range of 139 to 140 °C.

Compound `COc1ccc(C(=NN)Nc2ccc([N+](=O)[O-])cc2)cc1` came in with a melting point of 104 °C.

In turn, `Cc1cccc(NC(=O)c2cn(-c3ccccc3)c3ccccc3c2=O)n1` had a melting point of 273 to 274 °C.

In the case of `Oc1ccc(-c2ccc(-c3c(Cc4ccccc4)sc4ccccc34)cc2)cc1Br`, the melting point is 54 to 56 °C.

Compound `O=C1NC(=O)C(=Cc2cccc(OCc3ccccc3)c2)S1` returned a melting point of 233 to 235 °C.

Consider `COc1cc(C(=O)CC(=O)c2ccccc2O)cc([N+](=O)[O-])c1OC`, for which the melting point lay in the range of 188 to 189 °C.

Turning to `CC1(C)C(=O)C(c2ccccc2)=C1c1ccc(S(C)(=O)=O)cc1`, the melting point lay in the range of 145 to 146 °C.

`CN1CCSc2c(C(=O)NC3CN4CCC3CC4)cc(Cl)cc21` (stereo not given): the melting point fell in the range of 195 to 196 °C.

Turning to `CCOC(=O)c1cc2cc(C)cc(NS(=O)(=O)c3cccs3)c2[nH]1`, the melting point fell in the range of 168 to 169 °C.

In the case of `CC=CCn1c(C)c(C)c2cnnc(OCc3c(Cl)cccc3Cl)c21`, the melting point lay within 133 to 140 °C.

With `CC(C)c1ccc(-c2csc(-c3cccc(C(=O)O)c3)n2)cc1`, the melting point lay within 206 to 208 °C.

For `c1ccc2c(c1)OCCN1CCOCCN(CCOCC1)CCO2`, the melting point lay in the range of 119 to 120 °C.

As to `CC(=O)SC[C@H]1CCCCCC[C@H](C(=O)N2C[C@H](O)C[C@H]2C(=O)OCc2ccccc2)NC1=O`, the melting point worked out at 145 °C.

The record behind these values is a melting point compilation (Tetko et al.; mined from patent text by program, amines drawn as free bases though some values may be those of a salt).
